Data on six compounds can be found in patent publication US12448398B2, “Semi-synthetic analogues of epipolythiodioxopiperazine alkaloids” (Ohio State Innovation Foundation, priority 2019, dated 2025).

In data set [1] the test system is PANC02-H7 or UN-KC-6141 cells. To be noted: combination of 3 and anti PD-L1; cited from earlier work.
For the next data set, the target named is MLL1 (Homo sapiens, UniProt Q03164). To be noted: in pancreatic cancer; cited from earlier work.
The test system of data set [2] is metastatic colon carcinoma. To be noted: combined treatment of 3 and 5-fluorouracil; cited from earlier work.
Data set [3] relates to panel of cancer cell lines. The note with it: cited from earlier work.
Data set [4] concerns MDA-MB-435, MDA-MB-231 and OVCAR3 cells. In words: Cytotoxicity assay against a panel of three cancer cell lines (CellTiter 96 AQueous, 72 h). The format is cell-based, human. To be noted: panel MDA-MB-435, MDA-MB-231, OVCAR3; relative to parent natural product. The method, then: (§1) Human melanoma cancer cells (MDA-MB-435), human breast cancer cells (MDA-MB-231) and human ovarian cancer cells (OVCAR3) were obtained from the American Type Culture Collection (Manassas, VA). The cell lines were cultured in RPMI 1640 medium containing fetal 10% bovine serum, 100 unites/mL penicillin and 100 μg/mL streptomycin. The cells were grown at 37° C. under 5% CO2, and then harvested during the log-phase growth by trypsinization followed by two washing to remove all traces of enzymes. Cells were seeded in 96-well clear, flat-bottom plate (Microtest 96, Falcon) at a density of 5000 cells per well. Each plate was incubated overnight at 37° C. under 5% CO2. Samples dissolved in DMSO were diluted and added to the appropriate wells to give final concentrations of 20, 4, 0.8, 0.16, and 0.032 μM for pure compounds, and a total volume of 100 μL and 0.5% DMSO per well. The cells with the test samples were then incubated for 72 h at 37° C. Cell viability was examined using a commercial absorbance assay (CellTiter 96® AQueous One Solution Cell Proliferation Assay, Promega Corp, Madison, WI). IC50 values were determined as the concentration required to diminish cellular growth by 50% compared to the untreated controls after 72 h of continuous exposure. Taxol (Paclitaxel) was used as a positive control.
Human melanoma cancer cells (MDA-MB-435), human breast cancer cells (MDA-MB-231) and human ovarian cancer cells (OVCAR3) were produced from the American Type Culture Collection (Manassas, VA). RPMI 1640 medium (fetal 10% bovine serum, 100 unites/mL penicillin and 100 μg/mL streptomycin) was used to culture cell lines. The cells were grown at 37° C. under 5% CO2, then harvested during the log-phase growth by trypsinization followed by two washing to remove all traces of enzymes. 96-well clear, flat-bottom plate (Microtest 96, Falcon) was used to seed the cells at a density of 5000 cells per well. […] Cell viability was examined using a commercial absorbance assay (CellTiter 96® AQueous One Solution Cell Proliferation Assay, Promega Corp, Madison, WI). […]

In the next data set the test system is MDA-MB-231 cells. The experiment in a line: Cytotoxicity assay, human breast cancer cells. To be noted: vs verticillin H. Format: cell-based. The method, then:
as §1, with “The cells with the test samples were then incubated for 72 h at 37° C.” left out, “IC50 values were determined as the concentration required to diminish cellular growth by 50% compared to the untreated controls after 72 h of continuous exposure. Taxol (Paclitaxel) was used as a positive control.” left out
(§2) Human melanoma cancer cells (MDA-MB-435), human breast cancer cells (MDA-MB-231) and human ovarian cancer cells (OVCAR3) were produced from the American Type Culture Collection (Manassas, VA). […] Cell viability was examined using a commercial absorbance assay (CellTiter 96® AQueous One Solution Cell Proliferation Assay, Promega Corp, Madison, WI). […]

A further data set has as its system OVCAR3 cells. The experiment in a line: Cytotoxicity assay, human ovarian cancer cells. The format is cell-based. The note with it: vs verticillin H. The method, then:
as §1, with “The cells with the test samples were then incubated for 72 h at 37° C.” left out, “IC50 values were determined as the concentration required to diminish cellular growth by 50% compared to the untreated controls after 72 h of continuous exposure. Taxol (Paclitaxel) was used as a positive control.” left out
as §2

Sequence of MLL1 (Q15291 whole entry): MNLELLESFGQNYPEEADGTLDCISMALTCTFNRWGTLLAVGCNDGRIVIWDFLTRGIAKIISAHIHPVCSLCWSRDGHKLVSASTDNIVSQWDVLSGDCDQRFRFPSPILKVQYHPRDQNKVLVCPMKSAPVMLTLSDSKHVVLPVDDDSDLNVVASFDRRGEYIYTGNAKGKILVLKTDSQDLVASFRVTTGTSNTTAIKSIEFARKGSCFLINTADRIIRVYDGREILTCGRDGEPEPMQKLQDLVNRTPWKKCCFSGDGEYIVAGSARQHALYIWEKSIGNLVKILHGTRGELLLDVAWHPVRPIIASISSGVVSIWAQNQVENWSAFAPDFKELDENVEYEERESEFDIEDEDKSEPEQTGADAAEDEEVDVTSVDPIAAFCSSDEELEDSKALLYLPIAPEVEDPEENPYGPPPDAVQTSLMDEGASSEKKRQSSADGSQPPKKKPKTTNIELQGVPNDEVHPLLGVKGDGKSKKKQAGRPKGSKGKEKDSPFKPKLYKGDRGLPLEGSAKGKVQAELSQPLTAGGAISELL
Sequence of MLL1 (Q9UBL3 96-628, further chain): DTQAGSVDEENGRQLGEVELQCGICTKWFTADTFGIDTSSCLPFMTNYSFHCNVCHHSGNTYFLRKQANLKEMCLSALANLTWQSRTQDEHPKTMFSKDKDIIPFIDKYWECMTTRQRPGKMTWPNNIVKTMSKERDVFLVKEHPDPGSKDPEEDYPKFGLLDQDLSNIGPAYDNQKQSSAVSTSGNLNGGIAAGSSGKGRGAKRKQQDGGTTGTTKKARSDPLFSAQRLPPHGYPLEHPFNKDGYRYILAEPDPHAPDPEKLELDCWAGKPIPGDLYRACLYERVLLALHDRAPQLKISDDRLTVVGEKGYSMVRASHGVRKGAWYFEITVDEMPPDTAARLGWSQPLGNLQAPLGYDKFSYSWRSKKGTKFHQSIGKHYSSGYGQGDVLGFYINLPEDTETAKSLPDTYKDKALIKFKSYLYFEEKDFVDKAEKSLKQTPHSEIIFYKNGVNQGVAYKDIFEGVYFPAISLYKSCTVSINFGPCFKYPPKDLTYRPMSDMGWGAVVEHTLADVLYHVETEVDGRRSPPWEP
Sequence of MLL1 (Q03164 3745-3969): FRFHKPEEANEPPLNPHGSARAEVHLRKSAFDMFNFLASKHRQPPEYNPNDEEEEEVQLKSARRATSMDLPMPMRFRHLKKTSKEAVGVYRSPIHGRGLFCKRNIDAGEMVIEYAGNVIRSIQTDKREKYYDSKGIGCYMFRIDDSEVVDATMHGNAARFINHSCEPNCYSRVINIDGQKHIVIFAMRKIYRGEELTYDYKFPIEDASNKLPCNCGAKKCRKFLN

`CN1C(=O)C23SSC1(C)C(=O)N2C1Nc2ccccc2C1(C12c4ccccc4NC1N1C(=O)C4(C)SSC1(C(=O)N4C)C2O)C3O` (centres unmarked) [Compound 3, verticillin A]: the Tumor size result in data set [1] is listed as “significantly smaller tumor size”. At MLL1, the IC50 was 800 nM. Also, in data set [2], the “Tumor size compared to control” value was “significantly smaller tumors”. Further, the “Cytotoxicity level, in words” value in data set [3] is recorded as “nanomolar cytotoxicity”. With `CCCC(=O)O[C@H]1[C@]2([C@@]34c5ccccc5N[C@@H]3N3C(=O)[C@]5(CC)SS[C@]3(C(=O)N5C)[C@H]4O)c3ccccc3N[C@@H]2N2C(=O)[C@]3(CC)SS[C@]12C(=O)N3C` [Compound 12], the “Potency compared with the parent compound, in words” value in data set [4] was “more potent”. Consider `CC[C@@]12SS[C@]3(C(=O)N1C)[C@@H](O)[C@]1([C@@]45c6ccccc6N[C@@H]4N4C(=O)[C@]6(CC)SS[C@]4(C(=O)N6C)[C@H]5OC(=O)C(C)(C)C)c4ccccc4N[C@@H]1N3C2=O` [Compound 14], for which, in data set [4], the “Potency compared with the parent compound, in words” value is on record as “more potent”. On to `CCOC(=O)O[C@H]1[C@]2([C@@]34c5ccccc5N[C@@H]3N3C(=O)[C@]5(CC)SS[C@]3(C(=O)N5C)[C@H]4O)c3ccccc3N[C@@H]2N2C(=O)[C@]3(CC)SS[C@]12C(=O)N3C` [Compound 16], for which the “Potency compared with the parent compound, in words” value in data set [4] was “more potent”. In addition, the “Fold increase of potency relative to parent compound” value in the data set on MDA-MB-231 cells came to 4.4 fold. For `CC[C@@]12SS[C@]3(C(=O)N1C)[C@@H](O)[C@]1([C@@]45c6ccccc6N[C@@H]4N4C(=O)[C@]6(CC)SS[C@]4(C(=O)N6C)[C@H]5OS(=O)(=O)c4ccc(F)cc4)c4ccccc4N[C@@H]1N3C2=O` [Compound 17], the “Fold increase of potency relative to parent compound” value with OVCAR3 cells is 2.9 fold. Moreover, the “Fold loss of potency relative to parent compound” value in the data set with MDA-MB-231 cells stood at 1.6 fold. Consider `CC[C@@]12SS[C@]3(C(=O)N1C)[C@@H](O)[C@]1([C@@]45c6ccccc6N[C@@H]4N4C(=O)[C@]6(CC)SS[C@]4(C(=O)N6C)[C@H]5OC(=O)N(C)C)c4ccccc4N[C@@H]1N3C2=O` [Compound 19], for which the “Fold increase of potency relative to parent compound” value in the data set with OVCAR3 cells is listed as 12.0 fold.

For orientation: IC50 means the concentration needed to halve the response being measured.
